Results taken from article PMC10882719 (Frontiers in Neuroscience, 2024).
Like-named read-outs stand apart in the source and are kept apart here.

Tests used:
Type in all cases: cell-based
168 GPCRs [1] = target: T1, 168 GPCRs (Homo sapiens, UniProt P0DMS8)
T1 construct: host or cells: PathHunter cell lines
T1 sequence (P0DMS8 1-318): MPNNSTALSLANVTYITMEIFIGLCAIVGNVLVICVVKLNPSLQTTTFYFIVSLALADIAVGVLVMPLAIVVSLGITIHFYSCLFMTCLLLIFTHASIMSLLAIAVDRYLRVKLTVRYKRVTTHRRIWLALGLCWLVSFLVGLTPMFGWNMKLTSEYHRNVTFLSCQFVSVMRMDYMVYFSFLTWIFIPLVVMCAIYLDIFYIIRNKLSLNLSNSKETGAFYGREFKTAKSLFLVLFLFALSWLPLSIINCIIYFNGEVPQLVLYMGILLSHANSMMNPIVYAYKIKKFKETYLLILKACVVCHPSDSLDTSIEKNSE

168 GPCRs [2] = target: T2, 168 GPCRs (Homo sapiens, UniProt P21728)
T2 construct: host or cells: PathHunter cell lines
T2 sequence (P21728 whole entry): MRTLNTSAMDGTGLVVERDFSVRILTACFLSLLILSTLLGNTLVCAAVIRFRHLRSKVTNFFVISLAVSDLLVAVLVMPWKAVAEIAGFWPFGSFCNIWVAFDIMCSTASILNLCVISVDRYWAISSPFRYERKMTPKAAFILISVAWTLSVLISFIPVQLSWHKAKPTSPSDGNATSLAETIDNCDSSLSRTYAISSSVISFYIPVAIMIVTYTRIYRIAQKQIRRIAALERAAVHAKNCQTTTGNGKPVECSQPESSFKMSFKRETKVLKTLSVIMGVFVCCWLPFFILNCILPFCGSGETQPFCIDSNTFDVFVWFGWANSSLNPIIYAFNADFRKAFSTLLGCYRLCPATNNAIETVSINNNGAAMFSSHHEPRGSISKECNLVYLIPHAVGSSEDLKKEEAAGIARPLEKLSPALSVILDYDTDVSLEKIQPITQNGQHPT

168 GPCRs [3] = target: T3, 168 GPCRs (Homo sapiens, UniProt P25025)
T3 construct: host or cells: PathHunter cell lines
T3 sequence (P25025 1-360): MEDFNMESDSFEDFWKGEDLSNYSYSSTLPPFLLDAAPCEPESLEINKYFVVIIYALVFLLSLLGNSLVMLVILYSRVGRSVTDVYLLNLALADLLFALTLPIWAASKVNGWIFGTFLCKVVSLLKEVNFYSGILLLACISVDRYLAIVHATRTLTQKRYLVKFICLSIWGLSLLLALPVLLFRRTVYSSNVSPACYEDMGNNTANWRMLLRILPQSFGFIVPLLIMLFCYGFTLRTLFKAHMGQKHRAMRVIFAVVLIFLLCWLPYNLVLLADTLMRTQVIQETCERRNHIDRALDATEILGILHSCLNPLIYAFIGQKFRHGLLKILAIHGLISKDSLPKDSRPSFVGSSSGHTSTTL

168 GPCRs [4] = target: T4, 168 GPCRs (Homo sapiens, UniProt P46092)
T4 construct: host or cells: PathHunter cell lines
T4 sequence (P46092 1-362): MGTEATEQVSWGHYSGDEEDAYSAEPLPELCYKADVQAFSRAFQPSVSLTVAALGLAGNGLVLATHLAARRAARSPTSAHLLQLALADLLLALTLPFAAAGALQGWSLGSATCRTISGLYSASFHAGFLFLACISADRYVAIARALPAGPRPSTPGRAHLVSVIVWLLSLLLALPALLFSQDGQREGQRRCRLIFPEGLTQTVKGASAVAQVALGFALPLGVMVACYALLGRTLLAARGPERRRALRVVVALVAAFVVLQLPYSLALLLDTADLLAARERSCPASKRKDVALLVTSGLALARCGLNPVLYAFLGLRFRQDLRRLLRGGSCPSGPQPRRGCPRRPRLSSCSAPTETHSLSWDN

168 GPCRs [5] = target: T5, 168 GPCRs (Homo sapiens, UniProt P47872); conditions: SCTR
T5 construct: host or cells: PathHunter cell lines
T5 sequence (P47872 23-440): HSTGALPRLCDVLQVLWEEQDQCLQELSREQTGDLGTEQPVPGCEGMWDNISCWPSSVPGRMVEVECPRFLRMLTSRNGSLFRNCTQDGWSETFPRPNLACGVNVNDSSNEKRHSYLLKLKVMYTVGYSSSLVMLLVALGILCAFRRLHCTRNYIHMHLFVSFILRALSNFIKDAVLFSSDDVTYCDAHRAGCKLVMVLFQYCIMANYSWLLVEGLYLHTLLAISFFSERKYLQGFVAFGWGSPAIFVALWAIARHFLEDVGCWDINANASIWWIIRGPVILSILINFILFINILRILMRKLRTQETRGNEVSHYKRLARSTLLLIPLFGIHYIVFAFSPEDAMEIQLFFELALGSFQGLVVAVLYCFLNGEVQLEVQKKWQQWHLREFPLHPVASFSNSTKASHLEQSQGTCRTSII

168 GPCRs [6] = target: T6, 168 GPCRs (Homo sapiens, UniProt Q9UKP6); conditions: UTR2
T6 construct: host or cells: PathHunter cell lines
T6 sequence (Q9UKP6 1-389): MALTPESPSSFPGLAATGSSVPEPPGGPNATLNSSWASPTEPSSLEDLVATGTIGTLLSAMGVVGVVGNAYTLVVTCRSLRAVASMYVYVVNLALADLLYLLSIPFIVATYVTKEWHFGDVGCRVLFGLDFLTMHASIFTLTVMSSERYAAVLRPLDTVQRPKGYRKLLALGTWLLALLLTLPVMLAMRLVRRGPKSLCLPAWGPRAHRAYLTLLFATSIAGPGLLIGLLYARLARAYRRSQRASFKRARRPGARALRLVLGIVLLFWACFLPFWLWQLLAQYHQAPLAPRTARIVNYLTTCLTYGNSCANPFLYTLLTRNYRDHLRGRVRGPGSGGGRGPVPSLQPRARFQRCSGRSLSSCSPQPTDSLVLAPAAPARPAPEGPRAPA

Structure (SMILES) | % Agonist Activity (168 GPCRs [1]; ADORA3, 1 uM) [%] | % Antagonist Activity (168 GPCRs [1]; ADORA3, 1 uM) [%] | % Agonist Activity (168 GPCRs [1]; ADORA3, 10 uM) [%] | % Antagonist Activity (168 GPCRs [1]; ADORA3, 10 uM) [%] | % Agonist Activity (168 GPCRs [2]; DRD1, 1 uM) [%] | % Antagonist Activity (168 GPCRs [2]; DRD1, 1 uM) [%] | % Agonist Activity (168 GPCRs [2]; DRD1, 10 uM) [%] | % Antagonist Activity (168 GPCRs [2]; DRD1, 10 uM) [%] | % Agonist Activity (168 GPCRs [3]; CXCR2, 1 uM) [%] | % Antagonist Activity (168 GPCRs [3]; CXCR2, 1 uM) [%] | % Agonist Activity (168 GPCRs [3]; CXCR2, 10 uM) [%] | % Antagonist Activity (168 GPCRs [3]; CXCR2, 10 uM) [%] | % Agonist Activity (168 GPCRs [4]; CCR10, 1 uM) [%] | % Antagonist Activity (168 GPCRs [4]; CCR10, 1 uM) [%] | % Agonist Activity (168 GPCRs [4]; CCR10, 10 uM) [%] | % Antagonist Activity (168 GPCRs [4]; CCR10, 10 uM) [%] | % Agonist Activity (168 GPCRs [5]; Conc 1 uM) [%] | % Antagonist Activity (168 GPCRs [5]; Conc 1 uM) [%] | % Agonist Activity (168 GPCRs [5]; Conc 10 uM) [%] | % Antagonist Activity (168 GPCRs [5]; Conc 10 uM) [%] | other results
CNC(C)C(=O)c1ccc2c(c1)OCO2 (stereo not drawn) [methylone] | -4.5 | 11.3 | -5.3 | 7.7 | -1.6 | 6 | -1.6 | 7.8 | -0.2 | -7.6 | -2.6 | -1 | -2 | 5.4 | -1.8 | 2.6 | -2.6 | 5.3 | -1.4 | 2.5 | % Agonist Activity (168 GPCRs [6]; Conc 1 uM): 0.6%; % Antagonist Activity (168 GPCRs [6]; Conc 1 uM): -2.1%; % Agonist Activity (168 GPCRs [6]; Conc 10 uM): 0%; % Antagonist Activity (168 GPCRs [6]; Conc 10 uM): 4.2%
CNC(C)Cc1ccc2c(c1)OCO2 (stereo not drawn) [MDMA, 3,4-Methylenedioxy methamphetamine, reference compound] | 0.7 | -15.4 | 0.6 | -11.5 | -1 | -0.5 | -0.8 | 6 | -0.9 | 12.8 | 2.2 | 14.6 | -1.1 | 8.9 | -0.7 | 12.1 | 0.1 | -3.8 | -1.9 | 7.4 | % Agonist Activity (168 GPCRs [6]; Conc 1 uM): -1.1%; % Antagonist Activity (168 GPCRs [6]; Conc 1 uM): 4.4%; % Agonist Activity (168 GPCRs [6]; Conc 10 uM): -0.1%; % Antagonist Activity (168 GPCRs [6]; Conc 10 uM): 14.3%
